Data taken from patent US11330999B2 (MEMORIAL SLOAN KETTERING CANCER CENTER, priority 2017, dated 2022).

Experiments:
[1] = Hyperpolarized T1 at 1T after dissolution in buffered H2O or D2O; type: physicochemical; conditions: for Hyperpolarized T1 Value (s) D2O: dissolution in 100 mM Tris 1 mM EDTA pD 7.4 D2O; for Hyperpolarized T1 Value (s) H2O: dissolution in 100 mM Tris 1 mM EDTA pH 7.4 H2O
Description: Each compound was prepared with a different formulation, as follows: [5-^13C]- and [5-^13C, ^15N]-glutamine was mixed with 1.1 equivalent HCl and dissolved to a final concentration of 1.5 Min H2O:DMSO (65:35). [^13C]— and [^13C, ^15N2]-urea was dissolved to a final concentration of 6M in glycerol. [6-^13C]- and [6-^13C, ^15N3]-arginine was mixed with 1 equivalent HCl and dissolved to a final concentration of 3.2M in H2O. Each of these preparations also contained OX063 radical (General Electric, UK) dissolved to a final concentration of 15 mM. [^13C]—/[^13C, ^15N2]-urea and [6-^13C]-/[6-^13C, ^15N3]-arginine samples were polarized in a 3.35T SpinLab Polarizer (General Electric, UK) for 1.5 hours (0.83K, 93.98 GHz), while: [5-^13C]-/[^13C, ^15N]-glutamine samples were polarized in a 5T SpinLab Polarizer for 2 hours (0.83K, 93.98 GHz). Following polarization, the HP substrate was ejected from the polarizer via rapid dissolution, during which a superheated solution of 100 mM Tris 1 mM EDTA in pH 7.4 H2O or pD 7.4 D2O is run through the sample vial to dissolve the polarized substrate and eject it into a pre-chilled glass vial (−20° C.).

[2] = Thermal equilibrium T1 at high field (14.1T), inversion recovery; type: physicochemical; conditions: for T1 Value (s) D2O: 95:5 D2O:H2O, 100 mM Tris pD 7.4; for T1 Value (s) H2O: 100% H2O, 100 mM Tris pH 7.4
Description: (§1) [5-^13C]-glutamine (Cambridge Isotope Laboratories), [^13C]-urea (Sigma Aldrich), [^13C, ^15N2]-urea (Sigma Aldrich), [6-^13C]-arginine (Cambridge Isotope Laboratories), [5-^13C, ^15N]-glutamine (24) (24, as described in Example 7) and [6-^13C, ^15N3]-arginine (21, as described in Example 2) were evaluated to determine thermal equilibrium T1 and T2. An aliquot of each compound was dissolved in 95:5 D2O:H2O containing 100 mM Tris pD 7.4 and 100% H2O containing 100 mM Tris pH 7.4. [^13C]-urea and [^13C, ^15N2]-urea were dissolved to a final concentration of 100 mM.
(§2) ^13C NMR spectra for each compound dissolved in 95:5 D2O:H2O and 100% H2O was obtained with a 14.1T ^13C NMR (Bruker, USA). For inversion recovery experiments, 13 to 15 different delay times between the 180° and 90° pulses, spanning 3T1, were sampled. Each spectrum was an average of 3 to 4 scans, and a 5T1 to 6T1 pre-scan wait time was used to allow re-polarization of carbon nuclear spins between scans. T2 values were measured using a Carr-Purcell-Meiboom-Gill (CPMG) sequence for each compound dissolved in 95:5 D2O:H2O and 100% H2O. A 10 ms (or 5 ms ^13C-urea samples) wait-time between 180° pulses was used, and signal was acquired at total echo times spanning 3T2. For both T1- and T2-relaxation curve fitting, spectra were imported into Mnova (Mestrelabs, USA) and the area under the curve (AUC) of the ^13C resonance of interest was integrated. AUC values were exported to Prism 7 (GraphPad Software, USA), plotted against time on the x-axis, and data points were fit to the Bloch equations for T1 and T2.
(§3) When each compound was dissolved in D2O, the exchangeable protons on the nitrogen atoms rapidly exchange with deuterium in the solvent. As described in Table 1, at high field, each compound having protons exchanged with deuterium extended the T1 of ^13C relaxation times directly bonded to —NH or —NH2 residues, respectively. This effect is further illustrated for [6-^13C]-/[6-^13C, ^15N3]-arginine in FIG. 7.

[3] = Thermal equilibrium T2 at high field (14.1T), CPMG; type: physicochemical; conditions: for T2 Value (s) D2O: 95:5 D2O:H2O, 100 mM Tris pD 7.4; for T2 Value (s) H2O: 100% H2O, 100 mM Tris pH 7.4
Description: as §1, §2, §3

[4] = Hyperpolarized T1 measurement of 13C,15N-xanthine at 1T; type: physicochemical; conditions: mono-exponential decay fit corrected for flip angle
Description: (§4) A preparation containing 0.15-0.2 M [2-^13C, 1,3-^15N2]-3,7-dihydro-1H-purine-2,6-dione (6, as described in Example 1) and the OX063 radical was hyperpolarized using a SPINlab hyperpolarizer. T1 measurements were performed using 1T Magritek Spectrometer. For the acquisition of hyperpolarized spectra, data was acquired with a 5 s repetition time and 15° excitation for a total of 45 s. In vitro enzymatic experiments to evaluate the activity of XO in oxidizing xanthine (XA) to uric acid (UA) using superoxide as a cofactor were performed using 100 mg of mouse liver extract together with a PMS/NADH+ system to generate O^2−. ^13C NMR spectra was acquired using a 14.1T NMR spectrometer.
(§5) Compound 6 was hyperpolarized. The ^13C chemical shift between hyperpolarized XA and hyperpolarized UA was measured and determined to be 0.8 ppm. After dissolution, spectra of compound 6 were obtained and fit to a mono-exponential decay function, correcting for flip angle, to determine the spin-lattice relaxation time. A T1 of 77±1.4 s was measured (FIG. 2).

[5] = tested on: U251 cells; assay: CellROX green fluorescence microscopy of intracellular ROS; type: cell-based; conditions: menadione-treated U251 cells, co-incubation for 45 min
Description: Western blots for XO and xanthine transporter were performed using 20 ng of protein extract from 14 cell lines. In vitro fluorescent microscopy using CellROX green was performed in U251 cells to evaluate intracellular reactive oxygen species (ROS) and the effect of xanthine as an ROS scavenger. 14 different cancer cell lines from renal, sarcoma, lung, prostate, breast, pancreatic, oral, epithelial cancer were also screened to evaluate expression of xanthine transporter and XO. In all the cells, a high expression of XO was observed, whereas xanthine transporter was variable between the cell lines, with the largest expression in U251 cells. Therefore, this cell line was used for further in vitro fluorescence experiments (FIG. 3).

[6] = target: T1, Xanthine Oxidase (XO) (Mus musculus, UniProt Q00519); assay: In vitro oxidation of xanthine by XO in mouse liver extract with O2− (PMS/NADH system), 13C NMR; type: biochemical; conditions: 100 mg mouse liver extract, in the presence of O2−
T1 construct: from tissue; host or cells: mouse liver extract
Description: as §4, §5

[7] = Hyperpolarized T1 of arginine guanidine-carbon at 1T; type: physicochemical; conditions: 30° flip angle, 3 s repetition time, average of two
Description: (§6) To confirm the reduction of quadrupolar relaxation at the guanidine-carbon by ^15N enrichment, ^13C NMR spectra for unlabeled and [6-^13C, 6-^15N3]-L-Arginine-HCl (21, as described in Example 2) was obtained with a 14.1T ^13C NMR. The full width half max (FWHM) of the guanidine-carbon peak was measured, and the FWHM of the carbon-1 peak was used as an internal standard. For hyperpolarized T1 measurements compound 21 was mixed with 1 equivalent HCl and dissolved to a final concentration of 1.3 M in 2:3 H2O:glycerol with 15 mM of a OX063 radical. The sample was polarized for at least 1 h in a SpinSolve polarizer. […] This was performed twice and the calculated T1 values were averaged.
(§7) The FWHM of the guanidine-carbon peak for natural abundance and compound 21 was measured to be 1.4 Hz and 1.0 Hz, respectively, and the FWHM of carbon-1 was 0.9 Hz for both compounds (FIG. 5B).

[8] = FWHM of 13C NMR peaks at 14.1T (quadrupolar relaxation at guanidine-carbon); type: physicochemical; conditions: for FWHM of the guanidine-carbon peak / FWHM of carbon-1: 14.1T 13C NMR; for FWHM of carbon-1: internal standard
Description: as §6, §7
Therefore, the present methods may be used to follow Arg-1 activity within a tumor and serve as a surrogate readout of TAM infiltration. As such, this information may be used in therapy selection, monitoring therapeutic efficacy, and determining prognosis.

[9] = target: T2, human recombinant arginase-1 (Homo sapiens, UniProt P05089); assay: Michaelis-Menten kinetics, colorimetric urea assay; type: biochemical; conditions: 37° C., compound as substrate
T2 sequence (P05089 1-322): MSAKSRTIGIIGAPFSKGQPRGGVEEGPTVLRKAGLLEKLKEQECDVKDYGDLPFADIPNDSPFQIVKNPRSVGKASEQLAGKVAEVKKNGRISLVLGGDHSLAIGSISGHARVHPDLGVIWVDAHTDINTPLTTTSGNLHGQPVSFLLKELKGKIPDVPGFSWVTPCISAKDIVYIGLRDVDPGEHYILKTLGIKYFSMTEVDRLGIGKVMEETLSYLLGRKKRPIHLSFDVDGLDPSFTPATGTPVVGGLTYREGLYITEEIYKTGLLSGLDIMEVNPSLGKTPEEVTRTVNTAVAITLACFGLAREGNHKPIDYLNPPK

[10] = target: T3, arginase (Mus musculus, UniProt Q61176); assay: In vivo conversion of injected labeled arginine to urea in mouse liver (13C-NMR of extract); conditions: Balb/c mouse, tail vein 250 μL 20 mM, 1 min post-injection, extrapolated to a 1 g liver
T3 construct: from tissue; host or cells: liver of a living Balb/c mouse (in vivo)
T3 sequence (Q61176 1-323): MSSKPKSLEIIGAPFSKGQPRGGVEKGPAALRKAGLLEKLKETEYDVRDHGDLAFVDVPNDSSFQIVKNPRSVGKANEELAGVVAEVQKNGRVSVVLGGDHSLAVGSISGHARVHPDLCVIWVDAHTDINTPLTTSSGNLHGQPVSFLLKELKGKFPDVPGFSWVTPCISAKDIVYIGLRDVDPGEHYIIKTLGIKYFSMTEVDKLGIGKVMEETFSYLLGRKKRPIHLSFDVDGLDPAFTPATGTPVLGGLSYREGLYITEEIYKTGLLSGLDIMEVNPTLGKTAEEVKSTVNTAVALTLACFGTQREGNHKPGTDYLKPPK
Description: In vivo assay: A female, Balb/c mouse was equipped with a tail vein cannula and placed under anesthesia (1.5% isoflurane, 1 L/min for 30 mins), after which it was injected with 250 μL 20 mM [6-^13C, ^15N3]-arginine in 100 mM Tris, 1 mM EDTA pH 7.4 (in addition to another 100 μL of 10 U/mL heparin in saline which was in the dead space of the cannula) over the course of 10 seconds. 1 minute post-injection, the mouse was sacrificed via cervical dislocation, and the liver was collected and frozen in liquid nitrogen. 118 mg of the liver was extracted in 4% perchloric acid, the metabolite extract mixture was dried and subsequently re-suspended in D2O containing the glycine standard and 0.5 mM Gd-DOTA. A ^13C-NMR spectrum was acquired on a 600 MHz spectrometer (FIG. 10).

[11] = In vivo 13C EPI imaging of hyperpolarized urea in mouse; conditions: healthy female Balb/c mouse, monitored for 30 minutes
Description: Hyperpolarized [^13C, ^15N2]-urea was studied under clinical imaging conditions. A healthy female Balb/c mouse (12 weeks old) was injected with identical volumes of hyperpolarized [^13C, ^15N]-urea dissolved in either buffered D2O or H2O (FIG. 9A). Both samples were polarized for similar amounts of time and were dissolved to similar final concentrations. Immediately following the end of the injection, an axial 2D ^13C echo-planar imaging (EPI) sequence was initiated with a 3 s repetition time, 16×16 resolution with 2.25 mm×2.25 mm×10 mm voxels.

T1 sequence (Q00519 whole entry): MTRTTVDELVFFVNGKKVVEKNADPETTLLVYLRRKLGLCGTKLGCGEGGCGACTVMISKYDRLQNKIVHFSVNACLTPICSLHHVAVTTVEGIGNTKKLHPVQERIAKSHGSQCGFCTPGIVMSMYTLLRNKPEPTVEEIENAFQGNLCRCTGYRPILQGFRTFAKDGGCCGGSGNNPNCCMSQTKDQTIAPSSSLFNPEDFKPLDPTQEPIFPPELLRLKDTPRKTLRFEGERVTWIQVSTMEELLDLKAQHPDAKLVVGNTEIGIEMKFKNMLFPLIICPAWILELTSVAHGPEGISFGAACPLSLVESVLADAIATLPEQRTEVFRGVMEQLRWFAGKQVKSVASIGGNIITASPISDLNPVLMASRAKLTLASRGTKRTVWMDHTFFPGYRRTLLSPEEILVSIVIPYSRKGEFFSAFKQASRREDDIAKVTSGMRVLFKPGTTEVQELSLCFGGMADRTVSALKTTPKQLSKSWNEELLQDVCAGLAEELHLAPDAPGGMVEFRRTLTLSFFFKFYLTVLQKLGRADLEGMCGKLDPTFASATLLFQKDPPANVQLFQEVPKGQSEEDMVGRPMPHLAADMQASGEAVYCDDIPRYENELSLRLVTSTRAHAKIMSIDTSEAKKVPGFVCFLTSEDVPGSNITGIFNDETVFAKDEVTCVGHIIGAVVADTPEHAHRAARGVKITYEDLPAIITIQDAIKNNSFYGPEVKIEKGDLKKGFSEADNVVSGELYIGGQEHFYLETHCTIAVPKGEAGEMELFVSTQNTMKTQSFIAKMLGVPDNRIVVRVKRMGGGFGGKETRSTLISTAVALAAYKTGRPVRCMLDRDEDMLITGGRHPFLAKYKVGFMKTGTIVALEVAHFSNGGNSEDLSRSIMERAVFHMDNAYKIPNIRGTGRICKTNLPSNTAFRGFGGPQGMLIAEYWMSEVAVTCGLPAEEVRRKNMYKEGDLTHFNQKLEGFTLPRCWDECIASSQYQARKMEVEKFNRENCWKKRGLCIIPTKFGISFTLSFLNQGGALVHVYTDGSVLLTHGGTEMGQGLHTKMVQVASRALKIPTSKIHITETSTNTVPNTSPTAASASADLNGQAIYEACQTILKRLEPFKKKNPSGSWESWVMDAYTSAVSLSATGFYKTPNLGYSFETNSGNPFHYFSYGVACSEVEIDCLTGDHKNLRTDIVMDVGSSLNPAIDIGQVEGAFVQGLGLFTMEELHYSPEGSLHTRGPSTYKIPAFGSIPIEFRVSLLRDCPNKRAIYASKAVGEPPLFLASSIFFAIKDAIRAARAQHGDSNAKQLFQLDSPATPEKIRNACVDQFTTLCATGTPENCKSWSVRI

Compound	Hyperpolarized T1 Value (s) D2O [1]	Hyperpolarized T1 Value (s) H2O [1]	T1 Value (s) D2O [2]	T1 Value (s) H2O [2]	T2 Value (s) D2O [3]	T2 Value (s) H2O [3]	T1 (spin-lattice relaxation time) [4]	time to be oxidized in liver extracts [6]	morbidity after the two injections [11]	oxidative stress (CellRox fluorescence) [5]	T1 of the guanidine-carbon [7]	FWHM of the guanidine-carbon peak [8]	FWHM of carbon-1 [8]	decrease of FWHMguanidine:FWHMcarbon-1 ratio ([8]; labeled versus natural abundance arginine)	Km [9]	Vmax [9]	[13C, 15N2]-urea produced, share of the total injected arginine dose [10]
N[C@@H](CC[13C]([15NH2])=O)C(=O)O [Compound 24, (5-13C, 5-15N) L-glutamine]	31.2 ± 3.8 s	23.6 ± 2.1 s	12.29 ± 0.32 s	10.79 ± 0.34 s	4.66 ± 0.67 s	3.35 ± 0.21 s	–	–	–	–	–	–	–	–	–	–	–
O=c1[15nH][13c](=O)[15nH]c2nc[nH]c12 [Compound 6, [2-^13C, 1,3-^15N2]-3,7-dihydro-1H-purine-2,6-dione]	–	–	–	–	–	–	77 ± 1.4 s	less than 10 minutes	–	reduced	–	–	–	–	–	–	–
[6-^13C, 6-^15N3]-L-Arginine-HCl [Compound 21]	31.2 ± 6.8 s	13.3 ± 0.8 s	9.71 ± 0.26 s	6.83 ± 0.19 s	2.68 ± 0.03 s	0.82 ± 0.02 s	–	–	–	–	20.4 ± 0.4 s	1.0 Hz	0.9 Hz	29%	2040 ± 270 µM	48.2 ± 2.0 s⁻¹	approx. 3%
N=C(N)NCCC[C@H](N)C(=O)O [natural abundance arginine, arginine]	–	–	–	–	–	–	–	–	–	–	–	1.4 Hz	0.9 Hz	–	–	54.8 ± 2.2 s⁻¹	–
N=[13C](N)NCCC[C@H](N)C(=O)O [Arginine ^13C, [6-^13C]-arginine]	32.1 ± 4.5 s	–	9.74 ± 0.32 s	6.62 ± 0.22 s	0.234 ± 0.004 s	0.184 ± 0.003 s	–	–	–	–	could not be measured	–	–	–	–	–	–

The next lines start with results.

Hyperpolarized T1 Value (s) D2O [1]	Hyperpolarized T1 Value (s) H2O [1]	T1 Value (s) D2O [2]	T1 Value (s) H2O [2]	T2 Value (s) D2O [3]	T2 Value (s) H2O [3]	T1 (spin-lattice relaxation time) [4]	time to be oxidized in liver extracts [6]	morbidity after the two injections [11]	Compound	oxidative stress (CellRox fluorescence) [5]	T1 of the guanidine-carbon [7]	FWHM of the guanidine-carbon peak [8]	FWHM of carbon-1 [8]	decrease of FWHMguanidine:FWHMcarbon-1 ratio ([8]; labeled versus natural abundance arginine)	Km [9]	Vmax [9]	[13C, 15N2]-urea produced, share of the total injected arginine dose [10]
123.8 ± 19.6 s	51.6 ± 5.44 s	57.24 ± 3.95 s	31.01 ± 1.18 s	0.100 ± 0.002 s	0.089 ± 0.001 s	–	–	–	N[13C](N)=O [Urea ^13C, [^13C]-urea]	–	–	–	–	–	–	–	–
115.9 ± 8.5 s	53.3 ± 2.6 s	57.34 ± 2.04 s	31.97 ± 1.38 s	34.61 ± 0.64 s	20.12 ± 0.17 s	–	–	no obvious morbidity	[15NH2][13C]([15NH2])=O [Urea ^13C, ^15N2, [^13C, ^15N2]-urea]	–	–	–	–	–	–	–	–
34.1 ± 2.5 s	21.8 ± 1.8 s	12.34 ± 0.21 s	10.66 ± 0.34 s	0.455 ± 0.004 s	0.354 ± 0.003 s	–	–	–	N[C@@H](CC[13C](N)=O)C(=O)O [Glutamine ^13C, [5-^13C]-glutamine]	–	–	–	–	–	–	–	–
